{
  "source": "patent US20090061027A1",
  "about": "“Composition For The Prevention and Treatment Of Common Cold Diseases” (priority 2006, published 2009)",
  "system": "A549 cells",
  "assay": "Examination of the apoptotic caspase activation (Western Blot, PARP cleaving)",
  "assay_type": "cell-based",
  "details": "48 hours, extract 25 and 50 μg/ml, staurosporine as positive control stimulus",
  "description": "To examine the apoptotic caspase activation, A549 cells were treated with 25 and 50 μg/ml of the extract for 48 hours. The cells were then lysed, and the cellular proteins were separated using gel electrophoresis and examined in the Western Blot with an antiPARP antibody (Poly(ADP-Ribose) polymerase, caspase substrate) for the apoptotic cleaving of this protein by caspases. The apoptosis-inductor staurosporine served as the positive control stimulus. The experiments were conducted in two parallel batches.",
  "data": [
    {"smiles": "CN[C@@H]1C[C@H]2O[C@@](C)([C@@H]1OC)n1c3ccccc3c3c4c(c5c6ccccc6n2c5c31)C(=O)NC4", "note": "[staurosporine]", "values": [
      {"measurement": "caspase activation / apoptotic cleaving of PARP", "value": "efficient cleaving of the caspase substrate"}
    ]}
  ]
}
